Columns and labels:
[1] = biological target: T1, PKCδI (Mus musculus, UniProt P28867); experiment: Western blot on differentiating 3T3L1 cells (inhibitors added day 1 of differentiation); type: cell-based; conditions: 3T3L1, inhibitors added day 1 of differentiation, 24 h; for cleavage and release of the PKCδI catalytic domain: C-terminal PKCδ antibody
T1 construct: endogenous in cells; host or cells: 3T3L1 (differentiating pre-adipocytes, day 1; mature adipocytes, day 6)
Experimental: The compounds identified from the docking modeling were tested for their ability to inhibit PKCδI. 3T3L1 cells were plated in 60 mm dishes and differentiated. PKCδI regulates cell cycle during differentiation of pre-adipocytes to adipocytes. The inhibitors were added on day 1 of differentiation during mitotic clonal expansion when PKCδI expression is high (18). After 24 h, the cells were harvested and western blot analysis was performed on whole cell lysates.

[2] = biological target: T1, PKCδI; experiment: Western blot on mature adipocytes (inhibitors added day 6 of differentiation); type: cell-based; conditions: for phosphorylation of myelin basic protein (PKCδI substrate) / cleavage and release of the PKCδI catalytic domain: mature adipocytes, inhibitors added day 6 of differentiation, 24 h; for cleavage and release of the PKCδI catalytic domain: C-terminal PKCδ antibody
Experimental: Next, compounds 5139627, 5320091, 72950115, 28578828, 61397826 and 43844983 were tested on mature adipocytes. The inhibitors were added on day 6 of differentiation when the adipocytes are lipid laden. After 24 h, the cells were harvested and western blot analysis was performed on whole cell lysates.

[3] = biological target: T2, PKCδI (Homo sapiens, UniProt Q05655); experiment: In vitro kinase assay with recombinant PKCδI and SC35 as substrate; type: biochemical; conditions: 10 nM, 30 min incubation prior to assay, phosphatidyl serine and ATP
Experimental: Next, in vitro kinase assays were performed with recombinant proteins PKCδI and SC35 (as substrate) in a kinase buffer containing phosphatidyl serine and ATP; with and without 10 nM 5139627, 28578828 (30 min incubation prior to assay).

[4] = biological target: T2, PKCδI; experiment: PKC kinase activity kit, colorimetric assay (ENZO); type: biochemical; conditions: run in triplicate
Experimental: (§1) Briefly, a Protein Kinase C (PKC) kinase activity kit was used and a colorimetric assay (ENZO; run in triplicate) was performed. Relative kinase activity was calculated as (average absorbance of PKC isozyme−Average absorbance of blank)/quantity of pure kinase used per assay.

[5] = system: other PKCs; experiment: PKC kinase activity kit, colorimetric assay (ENZO), other PKC isozymes; type: biochemical; conditions: run in triplicate
Experimental: as §1

[6] = system: obese adipocytes; experiment: WST-1 assay for cell viability; type: cell-based; conditions: 10 nM
Experimental: A WST-1 assay performed using obese adipocytes treated with 513627 to evaluate toxicity of compound 513627. Briefly, obese adipocytes were treated with 10 nM of compound 513627 and a WST-1 assay for cell viability was performed. FIG. 5 represents data from four experiments.

[7] = biological target: T3, PKCδVIII (Homo sapiens, UniProt Q05655); experiment: Western blot on adipocytes from obese donor, PKCδVIII; type: cell-based; conditions: about 10-100 nM, about 24 h
T3 construct: adipocytes from the obese donor were treated with about 10-100 nM NP627; endogenous in cells; host or cells: primary human adipocytes from visceral adipose tissue of an obese donor
Excerpt: (§2) The C-terminal fragment of PKCδI phosphorylates its substrates that mediate expression of pro-apoptotic proteins. For a functional read-out, an assay was designed to measure: (1) Bcl-xL switching to its pro-apoptotic variant Bcl-xS and (2) Caspase9b switching to its pro-apoptotic variant caspase 9a. Briefly, adipocytes were freshly isolated from human visceral adipose tissue of lean and obese donors (IRB #20295; lean BMI 22.1 and 23; obese BMI 43.7 and 44.3; non-diabetic, nonsmokers, non-cancer).
(§3) Additionally, adipocytes from the obese donor were treated with about 10-100 nM NP627 (compound 513627) for about 24 h (n=3). Expression of PKCδI_F, PKCδI_C, PKCδVIII, and β-Actin (control) were analyzed using western blotting.

[8] = system: Bxl-xS and caspase9a; experiment: PCR based expression of pro-apoptotic variants in adipocytes from obese donor; type: cell-based, human; conditions: about 10 nM, about 24 h
Excerpt: as §2
Additionally, adipocytes from the obese donor were treated with about 10 nM of NP627 for about 24 h (n=3). Expression of Bxl-xL, Bxl-xS, caspase9a, andβ-actin (control) were analyzed using a PCR based technique (n=3).

[9] = biological target: T2, PKCδI; experiment: Western blot on adipocytes from obese donor, PKCδI cleavage; type: cell-based; parameters: adipocytes from the obese donor were treated with about 10-100 nM NP627; endogenous in cells; host or cells: primary human adipocytes from visceral adipose tissue of an obese donor; conditions: about 10-100 nM, about 24 h
Excerpt: as §2, §3

[10] = both pre-adipocytes and mature adipocytes

T1 sequence (P28867 whole entry, the tested form may be a part): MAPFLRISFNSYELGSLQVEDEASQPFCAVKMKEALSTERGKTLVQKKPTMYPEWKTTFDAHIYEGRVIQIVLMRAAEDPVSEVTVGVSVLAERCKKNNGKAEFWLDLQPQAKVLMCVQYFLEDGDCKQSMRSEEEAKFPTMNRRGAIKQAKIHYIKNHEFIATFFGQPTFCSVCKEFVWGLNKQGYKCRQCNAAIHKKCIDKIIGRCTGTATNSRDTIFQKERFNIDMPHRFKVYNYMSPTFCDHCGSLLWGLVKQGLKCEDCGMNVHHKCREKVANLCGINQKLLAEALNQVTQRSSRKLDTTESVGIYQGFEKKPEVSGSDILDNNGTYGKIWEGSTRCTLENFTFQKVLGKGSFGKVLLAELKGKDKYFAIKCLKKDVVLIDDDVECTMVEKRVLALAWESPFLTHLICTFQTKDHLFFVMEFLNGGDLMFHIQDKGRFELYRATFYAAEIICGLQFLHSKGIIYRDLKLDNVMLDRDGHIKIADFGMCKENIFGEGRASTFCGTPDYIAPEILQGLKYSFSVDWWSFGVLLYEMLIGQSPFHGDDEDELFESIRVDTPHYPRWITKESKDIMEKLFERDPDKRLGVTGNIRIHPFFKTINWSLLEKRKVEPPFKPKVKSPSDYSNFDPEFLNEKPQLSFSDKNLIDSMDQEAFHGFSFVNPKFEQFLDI
T2 sequence (Q05655 whole entry): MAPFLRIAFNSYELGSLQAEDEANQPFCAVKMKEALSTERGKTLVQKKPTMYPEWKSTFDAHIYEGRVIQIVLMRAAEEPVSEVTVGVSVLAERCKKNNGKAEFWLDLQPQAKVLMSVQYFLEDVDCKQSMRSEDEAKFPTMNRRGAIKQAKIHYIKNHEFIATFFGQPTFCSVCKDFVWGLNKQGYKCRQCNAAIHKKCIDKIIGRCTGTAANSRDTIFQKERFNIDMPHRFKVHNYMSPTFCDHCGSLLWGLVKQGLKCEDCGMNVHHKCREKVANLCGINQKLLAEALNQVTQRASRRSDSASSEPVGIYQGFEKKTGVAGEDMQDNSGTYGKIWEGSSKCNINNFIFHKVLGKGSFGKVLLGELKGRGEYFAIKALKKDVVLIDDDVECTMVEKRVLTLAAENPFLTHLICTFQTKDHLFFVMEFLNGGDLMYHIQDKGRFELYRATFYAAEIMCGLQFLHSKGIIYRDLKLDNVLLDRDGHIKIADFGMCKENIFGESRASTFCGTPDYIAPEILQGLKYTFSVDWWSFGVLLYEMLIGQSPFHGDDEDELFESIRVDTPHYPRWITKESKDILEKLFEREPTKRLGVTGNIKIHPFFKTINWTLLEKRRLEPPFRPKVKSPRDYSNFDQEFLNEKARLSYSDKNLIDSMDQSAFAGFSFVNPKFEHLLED
T3 sequence (Q05655 1-707 isoform Q05655-2): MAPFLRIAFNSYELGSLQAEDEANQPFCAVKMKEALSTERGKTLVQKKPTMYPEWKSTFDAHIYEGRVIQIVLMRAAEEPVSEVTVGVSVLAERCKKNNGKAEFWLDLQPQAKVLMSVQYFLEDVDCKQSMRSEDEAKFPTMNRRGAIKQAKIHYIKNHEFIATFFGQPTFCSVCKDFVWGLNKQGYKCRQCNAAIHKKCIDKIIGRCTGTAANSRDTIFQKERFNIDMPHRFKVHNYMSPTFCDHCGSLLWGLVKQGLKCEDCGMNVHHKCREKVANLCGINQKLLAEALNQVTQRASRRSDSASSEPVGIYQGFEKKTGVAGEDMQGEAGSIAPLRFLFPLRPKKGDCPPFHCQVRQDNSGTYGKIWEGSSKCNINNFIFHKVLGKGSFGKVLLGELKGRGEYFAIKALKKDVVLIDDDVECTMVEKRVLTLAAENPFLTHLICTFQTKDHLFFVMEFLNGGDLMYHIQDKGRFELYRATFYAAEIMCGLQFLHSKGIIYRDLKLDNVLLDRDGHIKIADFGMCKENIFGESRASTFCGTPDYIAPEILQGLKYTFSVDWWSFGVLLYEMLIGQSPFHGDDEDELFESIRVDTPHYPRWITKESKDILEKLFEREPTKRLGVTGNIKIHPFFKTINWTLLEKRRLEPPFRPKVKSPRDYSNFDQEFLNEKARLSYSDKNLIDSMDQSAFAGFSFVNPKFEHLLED

| phosphorylation of myelin basic protein (PKCδI substrate) [1] | cleavage and release of the PKCδI catalytic domain [1] | phosphorylation of myelin basic protein (PKCδI substrate) [2] | cleavage and release of the PKCδI catalytic domain [2] | inhibition of PKCδI cleavage [2, 10] | inhibition of phosphorylation of MBP [2, 10] | PKCδI activity [3] | specificity for PKCδI (relative kinase activity) [4] | other PKC isozyme activities [5] | PKCδVIII (alternatively spliced variant) [7] | cleavage of PKCδI [9] | Structure (SMILES) | cellular toxicity (cell viability) [6] | expression of Bxl-xS [8] | expression of caspase9a [8] |
| --- | --- | --- | --- | --- | --- | --- | --- | --- | --- | --- | --- | --- | --- | --- |
| decreased phosphorylation | inhibit the cleavage and release | decreased phosphorylation | inhibited the cleavage and release | – | – | – | – | – | – | – | Cc1nc2c(c(N(C)C)n1)CCN(C(=O)[C@@H]1C[C@@H](O)CN1)C2 [compound 61397826, (3R,5S)-5-{[4-(dimethylamino)-2-methyl-5,8-dihydropyrido[3,4-d]pyrimidin-7(6H)-yl]carbonyl}-3-pyrrolidinol] | – | – | – |
| decreased phosphorylation | inhibit the cleavage and release | decreased phosphorylation | inhibited the cleavage and release | completely inhibit | completely inhibit | – | – | – | – | – | CN(Cc1cnccn1)C(=O)c1cccc(C#CC(C)(C)O)c1 [compound 43844983, 3-(3-hydroxy-3-methylbut-1-yn-1-yl)-N-methyl-N-(pyrazin-2-ylmethyl)benzamide] | – | – | – |

Continued, molecule first:

| Structure (SMILES) | phosphorylation of myelin basic protein (PKCδI substrate) [1] | cleavage and release of the PKCδI catalytic domain [1] | phosphorylation of myelin basic protein (PKCδI substrate) [2] | cleavage and release of the PKCδI catalytic domain [2] | inhibition of PKCδI cleavage [2, 10] | inhibition of phosphorylation of MBP [2, 10] | PKCδI activity [3] | specificity for PKCδI (relative kinase activity) [4] | other PKC isozyme activities [5] | PKCδVIII (alternatively spliced variant) [7] | cleavage of PKCδI [9] | cellular toxicity (cell viability) [6] | expression of Bxl-xS [8] | expression of caspase9a [8] |
| --- | --- | --- | --- | --- | --- | --- | --- | --- | --- | --- | --- | --- | --- | --- |
| CC(C)(O)C(=O)C=Cc1ccc2c(c1)OCO2 [compound 5320091, 1-(1,3-benzodioxol-5-yl)-4-hydroxy-4-methyl-1-penten-3-one] | decreased phosphorylation | inhibit the cleavage and release | decreased phosphorylation | inhibited the cleavage and release | – | – | – | – | – | – | – | – | – | – |
| CCN(C/C=C/c1ccccc1)C(=O)CCc1nc2ccccc2[nH]1 [compound 72950115, 3-(1H-benzimidazol-2-yl)-N-ethyl-N-[(2E)-3-phenylprop-2-en-1-yl]propanamide] | decreased phosphorylation | inhibit the cleavage and release | decreased phosphorylation | inhibited the cleavage and release | – | – | – | – | – | – | – | – | – | – |
| N=C(CCN1C(=O)c2ccccc2C1=O)NNC(=O)CCCC(=O)NNC(=N)CCN1C(=O)c2ccccc2C1=O [compound 5139627, N′~1~,N′~5~-bis[3-(1,3-dioxo-1,3-dihydro-2H-isoindo1-2-yl)propanimidoyl]pentanedihydrazide] | – | inhibit the cleavage and release | decreased phosphorylation | inhibited the cleavage and release | – | – | specifically inhibit PKCδI activity | specificity for PKCδI | not inhibited | not inhibited | specifically inhibits cleavage of PKCδI | did not appear to cause cellular toxicity | decrease expression | decrease expression |
| OCCNc1cc(-c2cc(CO)ccn2)c2cc[nH]c2n1 [compound 28578828, 2-({4-[4-(hydroxymethyl)pyridin-2-yl]-1H-pyrrolo[2,3-b]pyridin-6-yl}amino)ethanol] | decreased phosphorylation | inhibit the cleavage and release | decreased phosphorylation | inhibited the cleavage and release | – | – | specifically inhibit PKCδI activity | – | – | – | – | – | – | – |

From US11844779B2, “PKC-Delta-I inhibitor formulations and uses thereof” (University of South Florida, priority 2016, dated 2023)
